Active and inactive are the calls of the source. For most assays here, no stated cut-off is given here; in the data, actives have a measured EC50 and inactives only a lower limit.

Eight compounds from ChEMBL document CHEMBL1201862, “PubChem BioAssay data set” (2004) can be followed below.

A short description of test [1]: Luminescence Cell-Based Dose Response to Identify Activators of Luciferase Translation or Activity in H4-C Neuroglioblastoma Cells. [Related pubchem assays: 1829 (Project Summary), 1814 (Primary HTS)]. It is filed as functional.
Test [2] deals with T1, Replicative DNA helicase DnaB (Mycobacterium tuberculosis, UniProt P9WMR3).
T1 sequence (P9WMR3 whole entry): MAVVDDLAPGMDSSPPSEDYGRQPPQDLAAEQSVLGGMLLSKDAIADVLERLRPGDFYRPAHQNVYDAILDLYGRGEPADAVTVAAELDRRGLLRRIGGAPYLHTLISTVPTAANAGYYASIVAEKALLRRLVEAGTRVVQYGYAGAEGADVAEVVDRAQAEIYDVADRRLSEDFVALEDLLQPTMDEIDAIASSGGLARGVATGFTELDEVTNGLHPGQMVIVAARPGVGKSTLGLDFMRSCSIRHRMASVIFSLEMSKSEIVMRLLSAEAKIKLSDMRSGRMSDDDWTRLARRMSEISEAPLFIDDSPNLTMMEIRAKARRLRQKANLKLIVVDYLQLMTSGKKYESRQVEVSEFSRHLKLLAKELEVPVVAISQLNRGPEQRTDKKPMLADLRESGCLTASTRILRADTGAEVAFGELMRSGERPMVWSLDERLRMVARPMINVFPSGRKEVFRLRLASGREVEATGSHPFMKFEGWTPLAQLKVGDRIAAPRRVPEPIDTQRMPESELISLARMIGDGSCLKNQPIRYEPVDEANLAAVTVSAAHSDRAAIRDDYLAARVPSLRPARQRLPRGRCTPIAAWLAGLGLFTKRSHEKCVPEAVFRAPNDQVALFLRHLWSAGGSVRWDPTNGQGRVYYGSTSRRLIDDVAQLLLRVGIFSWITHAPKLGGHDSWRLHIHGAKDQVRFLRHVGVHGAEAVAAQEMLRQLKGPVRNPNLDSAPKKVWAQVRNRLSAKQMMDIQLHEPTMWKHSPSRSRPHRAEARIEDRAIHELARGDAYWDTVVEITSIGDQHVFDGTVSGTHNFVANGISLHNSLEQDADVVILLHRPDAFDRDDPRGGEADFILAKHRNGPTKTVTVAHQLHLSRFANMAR
Nature of the test: DnaB intein splicing inhibitors, dose response, biochemical, cell-free fluorescence (AID 449749). It is filed as functional.

Another test has as its system H4. Nature of the test: Luminescence Cell-Based Dose Response HTS to Identify Activators of 5'UTR Stem-Loop Driven Prion Protein mRNA Translation in H4 Neuroglioblastoma Cells. [Related pubchem assays: 1829 (Project Summary), 1814 (Primary HTS)]. The test is classed as functional. To be noted: Homo sapiens.
Test [3] can be described thus: Luminescence Cell-Based Dose Confirmation HTS to Identify Activators of 5'UTR Stem-Loop Driven Alpha-Synuclein mRNA Translation in H4 Neuroglioblastoma Cells. [Related pubchem assays: 1829 (Project Summary), 1814 (Primary HTS)]. It is filed as functional.
Test [4] can be described thus: Luminescence Cell-Based Dose Response HTS to Identify Activators of Luciferase Translation or Activity in H4 […] Cells. [Related pubchem assays: 1829 (Project Summary), 1814 (Primary HTS)]. The test is classed as functional.
Test [5] addresses T2, Microphthalmia-associated transcription factor (Homo sapiens, UniProt O75030).
T2 sequence (O75030 whole entry): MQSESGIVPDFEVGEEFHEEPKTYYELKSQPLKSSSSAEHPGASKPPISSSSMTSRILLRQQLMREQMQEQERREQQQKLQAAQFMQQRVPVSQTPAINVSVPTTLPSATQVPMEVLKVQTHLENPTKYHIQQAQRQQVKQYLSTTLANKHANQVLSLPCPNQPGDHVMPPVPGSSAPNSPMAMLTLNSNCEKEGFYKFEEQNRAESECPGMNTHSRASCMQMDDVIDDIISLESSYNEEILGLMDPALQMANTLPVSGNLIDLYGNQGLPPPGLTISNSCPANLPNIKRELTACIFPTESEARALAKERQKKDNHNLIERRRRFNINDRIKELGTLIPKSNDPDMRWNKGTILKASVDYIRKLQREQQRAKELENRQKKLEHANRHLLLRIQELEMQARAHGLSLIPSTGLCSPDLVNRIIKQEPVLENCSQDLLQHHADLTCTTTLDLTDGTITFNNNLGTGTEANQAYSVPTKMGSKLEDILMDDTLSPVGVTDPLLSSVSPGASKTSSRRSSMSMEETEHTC
Nature of the test: reducers of TRPM1 reporter luminescence, concentration series – cell-based, SK-MEL-5, cherry-picked, set 3, MITF inhibitor project, dose response (AID 493073).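 Further: SK-MEL-5 melanoma cells with luciferase driven by the MITF target TRPM1 promoter.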 It is filed as functional.

For another test, the target named is T3, Protein RecA (Mycobacterium tuberculosis, UniProt P9WHJ3).
T3 sequence (P9WHJ3 whole entry): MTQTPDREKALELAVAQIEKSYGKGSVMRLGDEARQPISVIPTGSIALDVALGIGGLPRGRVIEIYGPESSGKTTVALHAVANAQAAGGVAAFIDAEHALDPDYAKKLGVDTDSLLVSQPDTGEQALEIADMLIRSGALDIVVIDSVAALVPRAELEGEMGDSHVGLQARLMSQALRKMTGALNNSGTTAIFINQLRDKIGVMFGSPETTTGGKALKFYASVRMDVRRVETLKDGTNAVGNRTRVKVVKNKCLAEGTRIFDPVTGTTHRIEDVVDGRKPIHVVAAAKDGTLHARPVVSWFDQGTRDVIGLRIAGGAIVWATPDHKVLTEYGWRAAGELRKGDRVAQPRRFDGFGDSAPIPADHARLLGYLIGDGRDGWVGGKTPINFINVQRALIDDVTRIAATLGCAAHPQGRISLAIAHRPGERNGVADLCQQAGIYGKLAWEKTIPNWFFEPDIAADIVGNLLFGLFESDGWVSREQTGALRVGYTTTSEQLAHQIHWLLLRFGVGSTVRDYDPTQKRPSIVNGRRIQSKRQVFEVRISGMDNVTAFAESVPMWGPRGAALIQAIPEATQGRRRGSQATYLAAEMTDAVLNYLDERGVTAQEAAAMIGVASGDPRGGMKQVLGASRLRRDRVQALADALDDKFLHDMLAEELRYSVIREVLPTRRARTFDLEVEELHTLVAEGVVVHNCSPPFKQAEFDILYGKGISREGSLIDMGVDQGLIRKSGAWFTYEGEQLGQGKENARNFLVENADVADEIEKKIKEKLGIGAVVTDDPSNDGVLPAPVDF
In words: Fluorescence Cell-Free Homogeneous Dose Retest to Identify Inhibitors of RecA-Intein Splicing Activity. [Related pubchem assays (depositor defined):AID2097, AID2223, AID489010, AID492950]. The test is classed as functional.

A short description of test [6]: Luminescence Cell-Based Dose Confirmation to Identify Activators of 5'UTR Stem-Loop Driven Alpha-Synuclein mRNA Translation in H4 Neuroglioblastoma Cells. [Related pubchem assays: 1829 (Project Summary), 1814 (Primary HTS)]. The test is classed as functional.
Test [7] can be described thus: Luminescence Cell-Based Dose Response to Identify Activators of 5'UTR Stem-Loop Driven Prion Protein mRNA Translation in H4-C Neuroglioblastoma Cells. [Related pubchem assays: 1829 (Project Summary), 1814 (Primary HTS)]. The test is classed as functional.
A further test deals with NS3 (Hepatitis C virus, UniProt A3EZJ3). In words: PubChem AID 2173. Set-up: species or system Hepacivirus hominis.
Sequence of NS3 (A3EZJ3 whole entry): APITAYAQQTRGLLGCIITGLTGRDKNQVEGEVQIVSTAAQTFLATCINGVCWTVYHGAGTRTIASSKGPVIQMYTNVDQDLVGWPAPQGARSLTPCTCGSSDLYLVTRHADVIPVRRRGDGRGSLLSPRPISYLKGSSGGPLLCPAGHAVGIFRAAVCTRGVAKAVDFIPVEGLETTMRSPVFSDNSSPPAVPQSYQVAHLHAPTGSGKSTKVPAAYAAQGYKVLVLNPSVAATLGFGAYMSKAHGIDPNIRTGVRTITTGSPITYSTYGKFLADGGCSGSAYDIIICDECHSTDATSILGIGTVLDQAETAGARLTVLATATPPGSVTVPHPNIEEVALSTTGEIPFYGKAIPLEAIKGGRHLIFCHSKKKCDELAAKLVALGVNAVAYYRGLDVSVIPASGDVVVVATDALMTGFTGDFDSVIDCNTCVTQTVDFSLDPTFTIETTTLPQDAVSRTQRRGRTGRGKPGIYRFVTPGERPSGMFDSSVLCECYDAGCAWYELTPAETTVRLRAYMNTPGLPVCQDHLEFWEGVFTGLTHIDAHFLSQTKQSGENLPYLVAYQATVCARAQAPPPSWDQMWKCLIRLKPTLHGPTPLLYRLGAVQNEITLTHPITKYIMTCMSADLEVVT
The next test has as its target T4, CAAX prenyl protease 2 (Saccharomyces cerevisiae S288c, UniProt Q03530).
T4 sequence (Q03530 whole entry): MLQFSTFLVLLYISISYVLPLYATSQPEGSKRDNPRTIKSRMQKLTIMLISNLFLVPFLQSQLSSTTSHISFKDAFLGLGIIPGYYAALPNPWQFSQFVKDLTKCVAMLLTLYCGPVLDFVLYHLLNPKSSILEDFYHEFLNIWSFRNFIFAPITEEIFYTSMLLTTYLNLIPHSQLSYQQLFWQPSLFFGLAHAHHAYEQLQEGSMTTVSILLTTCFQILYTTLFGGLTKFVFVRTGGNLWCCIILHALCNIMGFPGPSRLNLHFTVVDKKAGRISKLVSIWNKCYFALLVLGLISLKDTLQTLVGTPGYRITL
It is filed as biochemical.

The target in another test is Large T antigen (Simian virus 40, UniProt P03070). The test is classed as functional, Betapolyomavirus macacae.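 Further: Confirmatory-stage PubChem screen for compounds that inhibit SV40 T antigen.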
Sequence of Large T antigen (P03070 whole entry): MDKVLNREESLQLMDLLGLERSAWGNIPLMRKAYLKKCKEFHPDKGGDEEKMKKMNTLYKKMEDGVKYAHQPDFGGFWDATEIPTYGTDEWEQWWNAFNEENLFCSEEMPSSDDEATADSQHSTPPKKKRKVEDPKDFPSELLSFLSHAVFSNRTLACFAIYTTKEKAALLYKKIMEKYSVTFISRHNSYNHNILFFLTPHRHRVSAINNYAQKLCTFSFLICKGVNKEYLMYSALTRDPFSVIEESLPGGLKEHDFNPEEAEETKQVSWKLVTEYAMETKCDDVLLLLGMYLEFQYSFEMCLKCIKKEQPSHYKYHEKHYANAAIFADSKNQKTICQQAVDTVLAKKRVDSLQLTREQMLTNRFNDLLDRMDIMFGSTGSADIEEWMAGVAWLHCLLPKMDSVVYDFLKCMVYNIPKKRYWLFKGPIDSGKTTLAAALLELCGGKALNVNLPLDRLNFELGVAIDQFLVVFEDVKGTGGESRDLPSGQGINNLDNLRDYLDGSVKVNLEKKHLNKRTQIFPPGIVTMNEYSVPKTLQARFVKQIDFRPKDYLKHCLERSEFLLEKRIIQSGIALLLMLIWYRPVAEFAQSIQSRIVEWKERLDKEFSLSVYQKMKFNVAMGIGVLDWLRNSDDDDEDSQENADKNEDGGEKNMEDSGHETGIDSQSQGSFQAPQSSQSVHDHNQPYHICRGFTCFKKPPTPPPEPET
The next test concerns the target Beta-galactosidase (Escherichia coli, UniProt Q8VNN2). In words: PubChem AID 485352. It is filed as functional.
Test [8] concerns the target T5, Type-1 angiotensin II receptor (Homo sapiens, UniProt P30556).
T5 sequence (P30556 whole entry): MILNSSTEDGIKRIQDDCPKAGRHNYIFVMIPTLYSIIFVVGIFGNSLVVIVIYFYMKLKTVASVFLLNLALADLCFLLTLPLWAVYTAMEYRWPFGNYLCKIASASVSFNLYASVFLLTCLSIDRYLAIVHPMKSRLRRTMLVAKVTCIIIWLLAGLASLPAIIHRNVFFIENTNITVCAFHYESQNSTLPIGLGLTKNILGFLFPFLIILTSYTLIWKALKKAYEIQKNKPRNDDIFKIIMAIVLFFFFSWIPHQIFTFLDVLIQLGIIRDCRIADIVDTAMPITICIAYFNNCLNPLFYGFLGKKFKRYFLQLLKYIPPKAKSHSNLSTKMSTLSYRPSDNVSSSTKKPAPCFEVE
Nature of the test: antagonism of angiotensin II type 1 receptor – cell-based, uHTS hits, selectivity assay for APJ receptor antagonist project, dose response (AID 463214).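 Further: antagonist potency against angiotensin II stimulated AT1 response.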 It is filed as functional.

Test [9] concerns Vero. Nature of the test: viability of Vero cells under compound – cytotoxicity control for flavivirus capping enzyme inhibitors (AID 588742). It is filed as functional. To be noted: Chlorocebus sabaeus.
In test [10] the target is Induced myeloid leukemia cell differentiation protein Mcl-1 (Homo sapiens, UniProt Q07820). The test is classed as functional.
Sequence of Induced myeloid leukemia cell differentiation protein Mcl-1 (Q07820 whole entry): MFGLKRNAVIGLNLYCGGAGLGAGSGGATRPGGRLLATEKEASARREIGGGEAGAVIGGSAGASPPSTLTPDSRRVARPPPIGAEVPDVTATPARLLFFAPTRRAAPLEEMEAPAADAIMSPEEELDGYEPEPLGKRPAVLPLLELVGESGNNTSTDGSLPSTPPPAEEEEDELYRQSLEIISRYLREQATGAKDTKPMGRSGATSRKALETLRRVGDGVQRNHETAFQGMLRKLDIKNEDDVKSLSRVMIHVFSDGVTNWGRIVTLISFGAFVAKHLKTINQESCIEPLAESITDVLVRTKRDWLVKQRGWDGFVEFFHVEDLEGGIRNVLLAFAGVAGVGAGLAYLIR
The subject of test [11] is Vero. Nature of the test: cells. To be noted: Chlorocebus sabaeus. The test is classed as functional.
The subject of the next test is INS1. Nature of the test: INS-1E survival protection against cytokine death – cell-based, luminescence, retest, dose response (AID 449756).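 Further: cell death triggered by IL-1 beta plus TNF-alpha plus IFN-gamma mixture; protective hits raise ATP signal compared with cytokine alone wells.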 The test is classed as functional. To be noted: Rattus norvegicus.
Test [12] in a line: viability loss of HPDE-C7K cells – cell-based, fluorescence, HTS, primary screen (AID 431). To be noted: Homo sapiens. The test is classed as functional.
A short description of test [13]: HPDE-C7 pancreatic duct cell viability loss – fluorescence, HTS (AID 430). The test is classed as functional, cell-based. To be noted: Homo sapiens.
Test [14] deals with Voltage-dependent T-type calcium channel subunit alpha-1H (Homo sapiens, UniProt O95180). It is filed as functional.
Sequence of Voltage-dependent T-type calcium channel subunit alpha-1H (O95180 whole entry): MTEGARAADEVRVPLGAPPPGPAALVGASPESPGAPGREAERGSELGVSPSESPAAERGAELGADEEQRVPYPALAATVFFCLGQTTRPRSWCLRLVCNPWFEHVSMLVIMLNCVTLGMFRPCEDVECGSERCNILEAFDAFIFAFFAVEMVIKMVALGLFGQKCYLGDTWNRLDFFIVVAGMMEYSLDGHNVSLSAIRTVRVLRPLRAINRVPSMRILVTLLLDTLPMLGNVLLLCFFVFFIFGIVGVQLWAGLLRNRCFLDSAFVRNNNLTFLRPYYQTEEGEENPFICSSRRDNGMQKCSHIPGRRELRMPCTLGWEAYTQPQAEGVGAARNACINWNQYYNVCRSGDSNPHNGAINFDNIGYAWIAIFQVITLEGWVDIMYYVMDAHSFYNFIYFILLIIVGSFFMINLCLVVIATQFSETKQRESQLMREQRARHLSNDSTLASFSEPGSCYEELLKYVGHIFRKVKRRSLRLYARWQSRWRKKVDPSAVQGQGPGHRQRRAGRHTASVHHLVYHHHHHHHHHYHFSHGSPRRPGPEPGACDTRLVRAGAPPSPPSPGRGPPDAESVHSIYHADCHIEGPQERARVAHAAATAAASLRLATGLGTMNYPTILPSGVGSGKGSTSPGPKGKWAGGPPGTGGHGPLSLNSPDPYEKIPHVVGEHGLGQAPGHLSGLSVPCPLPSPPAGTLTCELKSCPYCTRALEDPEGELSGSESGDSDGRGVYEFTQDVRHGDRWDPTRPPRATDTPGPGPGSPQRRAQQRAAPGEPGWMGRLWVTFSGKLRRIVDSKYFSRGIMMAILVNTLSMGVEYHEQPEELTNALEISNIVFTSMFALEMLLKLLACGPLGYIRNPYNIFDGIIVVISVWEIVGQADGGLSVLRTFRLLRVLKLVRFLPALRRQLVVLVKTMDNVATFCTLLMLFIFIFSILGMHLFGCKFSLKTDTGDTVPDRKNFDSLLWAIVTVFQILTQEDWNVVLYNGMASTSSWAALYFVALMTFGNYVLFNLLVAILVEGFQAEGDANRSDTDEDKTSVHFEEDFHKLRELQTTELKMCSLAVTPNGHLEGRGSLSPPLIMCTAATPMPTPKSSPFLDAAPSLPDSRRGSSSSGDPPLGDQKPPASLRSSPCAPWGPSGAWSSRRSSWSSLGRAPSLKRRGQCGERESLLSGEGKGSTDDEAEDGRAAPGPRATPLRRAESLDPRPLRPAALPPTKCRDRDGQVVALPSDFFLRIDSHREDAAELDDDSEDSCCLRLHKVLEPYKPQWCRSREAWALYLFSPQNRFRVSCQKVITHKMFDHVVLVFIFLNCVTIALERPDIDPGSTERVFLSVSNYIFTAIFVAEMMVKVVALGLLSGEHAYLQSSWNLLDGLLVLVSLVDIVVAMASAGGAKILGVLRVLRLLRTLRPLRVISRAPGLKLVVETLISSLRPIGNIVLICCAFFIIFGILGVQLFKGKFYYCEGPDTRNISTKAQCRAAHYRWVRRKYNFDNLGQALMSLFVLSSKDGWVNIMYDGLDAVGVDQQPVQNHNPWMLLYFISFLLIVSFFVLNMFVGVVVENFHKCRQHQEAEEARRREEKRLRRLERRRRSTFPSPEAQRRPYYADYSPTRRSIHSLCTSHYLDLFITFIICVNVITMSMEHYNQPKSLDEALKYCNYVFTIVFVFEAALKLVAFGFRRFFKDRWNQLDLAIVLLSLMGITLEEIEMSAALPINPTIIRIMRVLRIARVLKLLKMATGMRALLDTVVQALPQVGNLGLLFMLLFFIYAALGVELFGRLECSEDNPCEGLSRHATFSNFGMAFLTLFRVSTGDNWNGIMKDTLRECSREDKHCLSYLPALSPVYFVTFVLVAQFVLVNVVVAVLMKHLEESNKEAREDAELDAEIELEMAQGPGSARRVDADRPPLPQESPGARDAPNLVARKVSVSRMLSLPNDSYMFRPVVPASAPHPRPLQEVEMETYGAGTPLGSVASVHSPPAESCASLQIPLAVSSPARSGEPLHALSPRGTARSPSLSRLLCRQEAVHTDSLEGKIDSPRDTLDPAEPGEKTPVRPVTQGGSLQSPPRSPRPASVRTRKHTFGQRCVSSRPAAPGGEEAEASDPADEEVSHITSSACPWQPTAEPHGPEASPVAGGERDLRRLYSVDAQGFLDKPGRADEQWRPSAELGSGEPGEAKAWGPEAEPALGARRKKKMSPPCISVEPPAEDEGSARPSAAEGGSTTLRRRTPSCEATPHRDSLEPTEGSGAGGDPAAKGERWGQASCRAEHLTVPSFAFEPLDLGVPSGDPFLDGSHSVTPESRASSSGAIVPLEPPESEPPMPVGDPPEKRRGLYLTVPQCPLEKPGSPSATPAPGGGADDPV
Test [15] is described as follows: Luminescence Cell-Based Dose Response HTS to Identify Inhibitors of 5'UTR Stem-Loop Driven Prion Protein mRNA Translation in H4 Neuroglioblastoma Cells. [Related pubchem assays: 1827 (Project Summary), 1813 (Primary HTS)]. The test is classed as functional.
Test [16] can be described thus: luciferase reporter signal suppression in cells – H4 neuroglioma cells, luminescence, dose response (AID 1990). The test is classed as functional, cell-based.
Test [17] in a line: alpha-synuclein stem-loop luciferase translation blockers – H4 neuroglioma cells, luminescence, confirmation (AID 1988). It is filed as functional, cell-based.

Sequence of Beta-galactosidase (Q8VNN2 whole entry): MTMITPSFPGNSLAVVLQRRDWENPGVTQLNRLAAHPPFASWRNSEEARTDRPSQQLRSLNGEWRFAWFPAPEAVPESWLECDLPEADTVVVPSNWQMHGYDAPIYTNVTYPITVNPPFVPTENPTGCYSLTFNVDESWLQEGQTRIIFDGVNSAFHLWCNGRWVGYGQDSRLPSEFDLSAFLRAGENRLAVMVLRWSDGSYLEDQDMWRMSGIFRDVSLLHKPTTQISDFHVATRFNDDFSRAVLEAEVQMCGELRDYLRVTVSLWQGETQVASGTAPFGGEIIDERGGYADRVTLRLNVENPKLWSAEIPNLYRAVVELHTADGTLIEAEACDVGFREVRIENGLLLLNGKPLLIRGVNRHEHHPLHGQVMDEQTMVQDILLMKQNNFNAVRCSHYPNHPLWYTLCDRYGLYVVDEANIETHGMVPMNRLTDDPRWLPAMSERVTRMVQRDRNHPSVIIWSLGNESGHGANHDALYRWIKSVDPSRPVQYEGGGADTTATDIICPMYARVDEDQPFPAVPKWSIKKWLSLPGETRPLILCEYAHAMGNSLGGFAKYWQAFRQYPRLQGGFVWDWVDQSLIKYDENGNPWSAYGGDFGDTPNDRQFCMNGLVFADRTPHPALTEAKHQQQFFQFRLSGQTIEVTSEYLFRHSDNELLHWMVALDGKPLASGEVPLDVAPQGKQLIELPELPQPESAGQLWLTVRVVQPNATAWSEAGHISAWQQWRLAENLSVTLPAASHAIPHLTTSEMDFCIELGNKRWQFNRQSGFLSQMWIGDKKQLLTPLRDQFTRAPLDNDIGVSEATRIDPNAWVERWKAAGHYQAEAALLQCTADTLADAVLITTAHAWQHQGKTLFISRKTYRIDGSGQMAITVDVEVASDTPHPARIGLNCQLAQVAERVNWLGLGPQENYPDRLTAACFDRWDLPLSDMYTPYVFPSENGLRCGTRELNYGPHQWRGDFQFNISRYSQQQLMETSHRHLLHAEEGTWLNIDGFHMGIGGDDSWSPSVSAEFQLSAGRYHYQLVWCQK

In the case of `O=C(CCl)Nc1cccc(-c2cnc3ccccc3n2)c1`, the EC50 was 0.561 µM (active) in test [1]; > 60 µM (not active) with H4; < 0.1 µM (active) in test [3]; 2.98 µM (active) in test [4]; 13.3 µM (active) at Protein RecA; 0.7 µM (active) in test [6]. The concentration giving a half-maximal response (EC50) in [7] is reported as > 12 µM (not active). The values for the half-maximal activity concentration (AC50) in [2] and in test [5] were 53.1 µM (active) and 4.02 µM (active), respectively.

For the compound `CCCCOc1ccc(-c2cc(C(F)(F)F)c(C#N)c(SCC(=O)O)n2)cc1`, on NS3, the IC50 is 1.98 µM (active). Further, on CAAX prenyl protease 2, the AC50 was 25.4 µM (active).

`Cc1ccc(SSc2cc(C)ccc2N)c(N)c1`: the half-maximal effective concentration (EC50) in test [1] was 1.67 µM (active); in the test on H4, 42.5 µM (inconclusive); in test [4] it was < 0.1 µM (inconclusive); at Beta-galactosidase, > 40 µM (inactive); in test [6], 5 µM (active); in test [7] it was 1.21 µM (active). For the same compound, the IC50 at Large T antigen is 10.8 µM (active); in test [8], > 40 µM (not active).

For the compound `COc1ccccc1NC(=O)c1cc2cc(Br)ccc2cc1O`, the half-maximal cytotoxic concentration (CC50) with Vero [9] is 4.04 µM (active); in the test with Vero [11], 2.72 µM (active). Besides, the IC50 on NS3 was > 4.03 µM (active); in [10], 2.63 µM (active). Besides, the AC50 in the test on INS1 was 6.21 µM (active).

Take `O=C(CCC(=O)N1CCN(C2CCCC2)CC1)Nc1nnc(C(F)(F)F)s1`: the concentration for a half-maximal effect (EC50) in test [12] and in [13] was > 20 µM (not active) each time.

As for `Cn1c(CCN2CCCCCC2)nc2cc(NC(=O)Nc3ccccc3)ccc21`, the EC50 in test [12] and in [13] was > 20 µM (not active) in each case.

For the compound `Oc1ncnc2nn(-c3ccccc3)nc12`, the 50% effective concentration (EC50) in test [1] was > 12 µM (not active); in the test with H4 it was > 120 µM (not active); in test [3], < 0.1 µM (active); in test [4] it was > 120 µM (not active); in test [6], > 12 µM (not active); in test [7], 4.54 µM (active).

On to `COc1cc(C)c(C(C)C)cc1S(=O)(=O)n1cnc(C)c1`, for which the EC50 is 4.11 µM (active) in test [12]; 52.3 µM (active) in test [14]; > 120 µM (not active) in test [15]; 3.47 µM (active) in test [13]; > 120 µM (not active) in test [16]; 9.12 µM (active) in [17].
